Results: ChEMBL document CHEMBL4699499, “Biochemical, cellular and structural characterization of novel and selective ERK3 inhibitors” (Bioorg Med Chem Lett, 2020)
pKd: −log10 of the molar value.

Legend:
[1] = biological target: T1, Mitogen-activated protein kinase 6 (Homo sapiens, UniProt Q16659); assay: Binding affinity to LPP-dephosphorylated recombinant wild-type ERK3 (9 to 327 residues) (unknown origin) expressed in Escherichia coli by microscale thermophoresis assay
[2] = biological target: T1, Mitogen-activated protein kinase 6; assay: Binding affinity to recombinant wild-type ERK3 (9 to 327 residues) (unknown origin) expressed in Escherichia coli by microscale thermophoresis assay
[3] = biological target: T1, Mitogen-activated protein kinase 6; assay: Binding affinity to wild-type human partial length ERK3 (M1 to P413 residues) expressed in bacterial expression system by kinomescan method
[4] = biological target: T1, Mitogen-activated protein kinase 6; assay: Binding affinity to recombinant wild-type ERK3 (9 to 327 residues) (unknown origin) expressed in Sf21 insect cells by microscale thermophoresis assay

T1 sequence (Q16659 whole entry, the tested form may be a part): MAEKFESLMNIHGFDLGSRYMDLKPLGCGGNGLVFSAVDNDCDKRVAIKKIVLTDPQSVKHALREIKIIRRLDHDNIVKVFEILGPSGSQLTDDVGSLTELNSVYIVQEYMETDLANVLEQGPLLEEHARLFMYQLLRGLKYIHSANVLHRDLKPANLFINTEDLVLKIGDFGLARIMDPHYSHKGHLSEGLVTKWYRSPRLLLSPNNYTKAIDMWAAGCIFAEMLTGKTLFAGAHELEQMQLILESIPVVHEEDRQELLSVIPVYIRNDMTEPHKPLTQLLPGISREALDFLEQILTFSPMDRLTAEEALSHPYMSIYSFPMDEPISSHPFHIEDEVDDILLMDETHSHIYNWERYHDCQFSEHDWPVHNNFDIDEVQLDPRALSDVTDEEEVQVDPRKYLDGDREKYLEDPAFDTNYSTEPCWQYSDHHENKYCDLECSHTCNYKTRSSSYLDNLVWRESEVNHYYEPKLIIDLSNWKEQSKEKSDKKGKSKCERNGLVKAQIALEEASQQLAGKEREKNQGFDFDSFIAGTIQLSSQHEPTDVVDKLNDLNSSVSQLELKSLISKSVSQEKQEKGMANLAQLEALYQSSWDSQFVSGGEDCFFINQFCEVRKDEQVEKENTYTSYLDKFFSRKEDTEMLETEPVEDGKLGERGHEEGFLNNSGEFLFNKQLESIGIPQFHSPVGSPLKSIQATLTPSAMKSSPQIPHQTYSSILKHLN

SMILES	pKd [1]	pKd [2]	pKd [3]	pKd [4]
Nc1n[nH]c2nnc(-c3c(-c4ccccc4)nn4ccccc34)cc12	< 5.00	–	–	–
O=C(Nc1ccc2[nH]nc(-c3ccncc3)c2c1)[C@@H]1CCN(CC(=O)N2CCN(c3ccc(-c4ncccn4)cc3)CC2)C1	–	4.84	–	–
COc1ccc(-n2nnc3cnc(N[C@H]4CC[C@H](C(N)=O)CC4)nc32)cc1	5.82	5.89	6.01	5.96
